The subject of this test is isolated rat aortic strips. Description: Contraction of rat aortic strips: inhibition of Ca++-induced contracture (calcium channel blocking activity). In kind it is cell-based. The note with it: for inhibition at 0.3 µM: Rattus norvegicus, read-out: % Inhibition (contractile response at 2 mM Ca++ as compared to the control), heading: % Inhibition, 3×10^-7 M, 15 minutes prior to and during the calcium curve, depolarizing K+ 45 mM, diltiazem n = 10, A-D n = 1. As to the method:
The calcium channel blocking activity of compounds of formula I was determined by measuring the effect of compounds of formula I on isolated rat aortic strips.
Aortas were excised from rats, placed in Krebs-Henseleit solution, modified so as to be calcium free, with a depolarized level of potassium (45 mM), and 0.02 mM EDTA. The aorta was then helically cut into a strip about 2 mm wide. This strip was then divided into four equal segments about 15 mm in length, which were hung in isolated tissue chambers, attached to the appropriate tranducers and subjected to 500 mg basal tension. After a period of stabilization under these conditions, calcium was introduced into the bath and the tissues contracted in a concentration dependent manner.
When no calcium is available in the bathing media, and the potential dependent calcium channels are opened by the high potassium level, contractility is dependent on the level of calcium introduced into the bath. By adding increments of calcium into the bath, a reproducible concentration-dependent contracture can be obtained. Treatment with a calcium channel blocker, such as diltiazem, or a compound of the invention results in an inhibition of this contractile response.
Each number in the table below was derived by first adding calcium alone to tissue and measuring contracture, and then adding calcium to tissue that had been exposed to 3×10^-7 M of the compound to be tested and measuring contracture. The number for untreated controls was derived by measuring contracture for two runs where calcium alone was added.
A compound tested was placed in the bath at 3×10^-7 M for 15 minutes prior to, and during the acquisition of the concentration-dependent curve to calcium for that particular compound. The inhibition in contractile response at 2 mMCa++ was measured as a per cent inhibition as compared to the control. The effects on the 2 mM Ca++ contracture are as follows:
That is, compound A inhibited almost three quarters of the contracture observed for the control at 2 mM Ca++. As used above, compounds A, B, C, and D are as follows: […]

Where a name gives a salt, the structure may show the parent alone.

Turning to `COc1ccc([C@H]2SC(c3ccccc3)=C(C)N(CCN(C)C)C(=O)[C@H]2OC(C)=O)cc1` (racemic) [Compound A, cis-rac.-6-(acetyloxy)-6,7-dihydro-7-(4-methoxyphenyl)-3-methyl-4-[2-(dimethylamino)ethyl]-2-phenyl-1,4-thiazepin-5(4H)-one (E)-2-butenedioate], the inhibition at 0.3 µM came out at 73.4%. On the same count and under the same terms, as for `COc1ccc([C@@H]2SC(c3ccccc3)=C(C)N(CCN(C)C)C(=O)[C@H]2OC(C)=O)cc1` (relative stereo) [D, trans-rac.-6-(acetyloxy)6,7-dihydro-7-(4-methoxyphenyl)-3-methyl-4-[2-dimethylamino)ethyl]-2-phenyl-1,4-thiazepin-5(4H)-one hydrochloride], the figure is 13.4%. The same measure, in the same setting: as for `COc1ccc([C@H]2SC(c3ccccc3)=C(C)N(CCN(C)C)C(=O)[C@H]2OC(C)=O)cc1` [C, (-)-cis-6-(acetyloxy)-6,7-dihydro-7-(4-methoxyphenyl)-3-methyl-4-[2-dimethylamino)ethyl]-2-phenyl-1,4-thiazepin-5(4H)-one [R-(R*,R*)]-2,3-dihydroxybutanedioic acid sesquihydrate], the figure is 3.8%; as for `COc1ccc([C@@H]2SC(c3ccccc3)=C(C)N(CCN(C)C)C(=O)[C@@H]2OC(C)=O)cc1` [Compound B, (+)-cis-6-(acetyloxy)-6,7-dihydro-7-(4-methoxyphenyl)-3-methyl-4-[2-dimethylamino)ethyl]-2-phenyl-1,4-thiazepin-5(4H)-one [S-(R*,R*)]-2,3-dihydroxybutanedioic acid hydrate], 88.3%.

For the compound `COc1ccc([C@@H]2Sc3ccccc3N(CCN(C)C)C(=O)[C@@H]2OC(C)=O)cc1` [Diltiazem, reference compound], the inhibition at 0.3 µM was found to be 71.1%. The “responsiveness to 2 mM Ca++” value (15 minute exposure at 3×10^-7 M) is “marked reduction in responsiveness”.

What is called inhibition is the change of the read-out against control, counted positive when it falls.

Values taken from US4959359A, “Phenyl-thiazepinones as calcium regulating agents” (Hoffmann-La Roche Inc., priority 1989, dated 1990).
